Laboratory results published in patent US20140024638A1, “TREATMENT OF COGNITIVE DYSFUNCTION IN SCHIZOPHRENIA” (TARGACEPT, INC., priority 2011, published 2014).

Columns and labels:
α7 NNR receptor = α7 NNR receptor (Homo sapiens, UniProt P36544); experiment: agonism at the α7 NNR receptor; format: biochemical
[1] = test system: patients with schizophrenia; experiment: CogState 1-Card Learning task (visual learning), Phase 2 trial; format: in vivo, human; conditions: for CogState 1-Card Learning: Mean (SE): tobacco users meeting data integrity criteria; for CogState 1-Card Learning: Mean (SEM): total population, subjects meeting data integrity criteria
Method: (§1) The double blind, placebo controlled Phase 2 trial was conducted at 7 sites in the United States and 12 sites in India. […] Of the randomized patients, approximately 69% were male and approximately 46% were users of tobacco products. […] The primary efficacy outcome measure was GMLT, and the trial included a number of other scales as secondary efficacy outcome measures.

[2] = test system: patients with schizophrenia; experiment: CogState International Shopping List (verbal learning), Phase 2 trial; parameters: species or system human; conditions: in vivo
Method: as §1

[3] = test system: patients with schizophrenia; experiment: CogState 1-Back task (working memory), Phase 2 trial; format: in vivo, human; conditions: for CogState 1-Back: Mean (SE): tobacco users meeting data integrity criteria; for CogState 1-Back: Mean (SEM): total population, subjects meeting data integrity criteria
Method: as §1

[4] = test system: patients with schizophrenia; experiment: CogState Identification task (attention), Phase 2 trial; format: in vivo, human; conditions: for CogState Identification: Mean (SE): tobacco users meeting data integrity criteria; for CogState Identification: Mean (SEM): total population, subjects meeting data integrity criteria
Method: as §1

Chain of α7 NNR receptor (P36544 23-502): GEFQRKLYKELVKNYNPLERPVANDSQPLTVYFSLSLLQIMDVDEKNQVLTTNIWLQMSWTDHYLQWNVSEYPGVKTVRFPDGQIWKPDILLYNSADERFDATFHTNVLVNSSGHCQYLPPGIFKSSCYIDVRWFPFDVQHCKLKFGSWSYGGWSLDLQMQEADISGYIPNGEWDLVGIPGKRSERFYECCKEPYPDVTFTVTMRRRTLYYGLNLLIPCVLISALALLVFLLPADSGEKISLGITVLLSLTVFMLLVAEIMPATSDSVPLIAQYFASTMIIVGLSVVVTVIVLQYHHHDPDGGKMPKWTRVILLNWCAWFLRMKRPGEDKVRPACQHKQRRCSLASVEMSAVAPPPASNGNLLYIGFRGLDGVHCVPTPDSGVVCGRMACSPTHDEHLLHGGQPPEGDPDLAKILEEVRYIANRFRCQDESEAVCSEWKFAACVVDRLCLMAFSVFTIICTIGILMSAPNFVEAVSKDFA

In the case of O=C(N[C@@H]1C2CCN(CC2)[C@H]1Cc1cccnc1)c1cc2ccccc2o1 (single isomer, unassigned) [TC-5619], the “agonist character at the α7 NNR” value (α7 NNR receptor; listed as (2S,3R)—N-(2-((3-pyridinyl)methyl)-1-azabicyclo[2.2.2]oct-3-yl)benzofuran-2-carb) was “selective alpha7 NNR agonist”, the “agonist character at the α7 NNR” value (α7 NNR receptor; listed as Compound A) was “highly selective, full agonist” and the “separation between EC50 and the IC50 (for residual inhibition)” value (α7 NNR receptor; α7 NNR receptor) was “good separation”. For the same compound, the “CogState 1-card learning (visual learning), result in words” value ([1]; in vivo) was “statistically significant results of improvement”, the “CogState 1-Card Learning: Mean (SE)” value ([1]; Week 4, 1 mg daily, 1-tailed p = 0.615) was −0.008 (0.027); p = 0.615 and the “CogState 1-Card Learning: Mean (SE)” value ([1]; Week 8, 5 mg daily, 1-tailed p = 0.778) was −0.021; 0.028); p = 0.778. For the same compound, the “CogState 1-Card Learning: Mean (SE)” value ([1]; Week 12, 25 mg daily, 1-tailed p = 0.338) was 0.012 (0.028); p = 0.338, the “CogState 1-Card Learning: Mean (SEM)” value ([1]; Week 4, 1 mg daily, 1-tailed P = 0.660) was −0.008 (0.019); P = 0.660 ^ and the “CogState 1-Card Learning: Mean (SEM)” value ([1]; Week 8, 5 mg daily, 1-tailed P = 0.899) was −0.024 (0.019); P = 0.899 ^. The “CogState 1-Card Learning: Mean (SEM)” value ([1]; Week 12, 25 mg daily, 1-tailed P = 0.841) was −0.019 (0.020); P = 0.841 ^, the “CogState International Shopping List (verbal learning), result in words” value [2] was “statistically significant results of improvement” and the “CogState 1-back (working memory), result in words” value ([3]; in vivo) was “statistically significant results of improvement”. For the same compound, the “CogState 1-Back: Mean (SE)” value ([3]; Week 4, 1 mg daily, 1-tailed p = 0.605) was 0.005 (0.021); p = 0.605, the “CogState 1-Back: Mean (SE)” value ([3]; Week 8, 5 mg daily, 1-tailed p = 0.329) was −0.009 (0.021); p = 0.329 and the “CogState 1-Back: Mean (SE)” value ([3]; Week 12, 25 mg daily, 1-tailed p = 0.020) was −0.042 (0.020); p = 0.020. For the same compound, the “CogState 1-Back: Mean (SEM)” value ([3]; Week 4, 1 mg daily, 1-tailed p = 0.691) was 0.007 (0.014); p = 0.691, the “CogState 1-Back: Mean (SEM)” value ([3]; Week 8, 5 mg daily, 1-tailed p = 0.647) was 0.005 (0.015); p = 0.647 and the “CogState 1-Back: Mean (SEM)” value ([3]; Week 12, 25 mg daily, 1-tailed p = 0.042) was −0.024 (0.014); p = 0.042. The “CogState identification (attention), result in words” value ([4]; in vivo) was “statistically significant results of improvement”, the “CogState Identification: Mean (SE)” value ([4]; Week 4, 1 mg daily, 1-tailed p = 0.097) was −0.021 (0.016); p = 0.097 and the “CogState Identification: Mean (SE)” value ([4]; Week 8, 5 mg daily, 1-tailed p = 0.261) was −0.011 (0.017); p = 0.261. For the same compound, the “CogState Identification: Mean (SE)” value ([4]; Week 12, 25 mg daily, 1-tailed p = 0.057) was −0.026 (0.016); p = 0.057, the “CogState Identification: Mean (SEM)” value ([4]; Week 4, 1 mg daily, 1-tailed p = 0.311) was −0.005 (0.011); p = 0.311 and the “CogState Identification: Mean (SEM)” value ([4]; Week 8, 5 mg daily, 1-tailed p = 0.111) was −0.014 (0.012); p = 0.111. The “CogState Identification: Mean (SEM)” value ([4]; Week 12, 25 mg daily, 1-tailed p = 0.063) was −0.017 (0.011); p = 0.063.
